19 molecules from patent US20250250230A1, “HETEROCYCLIC COMPOUND” (TAKEDA PHARMACEUTICAL COMPANY LIMITED, priority 2022, published 2025) can be followed below.

SMILES strings stand for the structures.

For this assay, the target named is T1, human orexin type 2 receptor (Homo sapiens, UniProt O43614).
T1 construct: expressed in transfected cells
T1 sequence (O43614 1-444): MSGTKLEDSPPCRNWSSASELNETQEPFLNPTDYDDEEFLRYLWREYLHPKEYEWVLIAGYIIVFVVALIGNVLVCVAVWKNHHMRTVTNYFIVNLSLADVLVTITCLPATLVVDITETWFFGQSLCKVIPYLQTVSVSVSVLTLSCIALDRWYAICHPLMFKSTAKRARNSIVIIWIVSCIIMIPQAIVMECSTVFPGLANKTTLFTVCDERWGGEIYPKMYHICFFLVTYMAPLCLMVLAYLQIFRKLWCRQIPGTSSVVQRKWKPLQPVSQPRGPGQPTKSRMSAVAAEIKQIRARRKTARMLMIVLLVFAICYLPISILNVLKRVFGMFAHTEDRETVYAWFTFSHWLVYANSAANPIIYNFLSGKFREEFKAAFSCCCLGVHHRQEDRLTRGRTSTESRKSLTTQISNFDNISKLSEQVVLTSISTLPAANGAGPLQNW
As to the kind of experiment: Measurement of orexin type 2 receptor agonist activity (calcium fluorescence, Fluo-4 AM, FDSS). Type of assay: cell-based. Conditions: test compound 3 μM; CHO cells expressing human OX2 receptor; DMSO = 0%, orexin A (human) = 100%. In short, it runs like this: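 Agonist response scaled between vehicle (0%) and human orexin A at 10 nM final (100%), from 2-min kinetic Fluo-4 fluorescence reads. Stable hOX2R CHO-K1 clone, dye-loaded in HBSS/20 mM HEPES/0.1% BSA with 1.25 mM probenecid before compound addition.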
For the molecule `CS(=O)(=O)NC[C@@H]1[C@H](CF)CN1C(=O)[C@@H]1C[C@@]1(F)c1ccccc1-c1c(F)cccc1F` [Example 398, N-{[(2S,3R)-1-[(1S,2S)-2-(2′,6′-difluoro[1,1′-biphenyl]-2-yl)-2-fluorocyclopropane-1-carbonyl]-3-(fluoromethyl)azetidin-2-yl]methyl}methanesulfonamide], the “OX2R agonist activity (3 μM, %)” value is reported as 97%.

Turning to `CS(=O)(=O)NC[C@H]1[C@H](CF)CN1C(=O)[C@@H]1C[C@@]1(F)c1ccccc1-c1c(F)cccc1F` [Example 400, N-{[(2R,3R)-1-[(1S,2S)-2-(2′,6′-difluoro[1,1′-biphenyl]-2-yl)-2-fluorocyclopropane-1-carbonyl]-3-(fluoromethyl)azetidin-2-yl]methyl}methanesulfonamide], the “OX2R agonist activity (3 μM, %)” value is reported as 99%.

Turning to `CC(NS(C)(=O)=O)[C@@H]1[C@H](C)CN1C(=O)[C@@H]1C[C@@]1(F)c1ccccc1-c1c(F)cccc1F` (stereo partly drawn) [Example 401, N-[(1R)-1-{(2S,3R)-1-[(1S,2S)-2-(2′,6′-difluoro[1,1′-biphenyl]-2-yl)-2-fluorocyclopropane-1-carbonyl]-3-methylazetidin-2-yl}ethyl]methanesulfonamide, or N-[(1S)-1-{(2S,3R)-1-[(1S,2S)-2-(2′,6′-difluoro[1,1′-biphenyl]-2-yl)-2-fluorocyclopropane-1-carbonyl]-3-methylazetidin-2-yl}ethyl]methanesulfonamide], the “OX2R agonist activity (3 μM, %)” value was 79%.

With `CS(=O)(=O)NC[C@@H]1CCN1C(=O)[C@@H]1C[C@H]1c1ccccc1-c1c(F)cc(F)cc1F` [Example 403, N-({(2S)-1-[(1R,2R)-2-(2′,4′,6′-trifluoro[1,1′-biphenyl]-2-yl)cyclopropane-1-carbonyl]azetidin-2-yl}methyl)methanesulfonamide], the “OX2R agonist activity (3 μM, %)” value is on record as 83%.

On to `CS(=O)(=O)NC[C@H]1[C@H](C(F)F)CN1C(=O)[C@@H]1C[C@@]1(F)c1ccccc1-c1c(F)cccc1F` [Example 405, N-{[(2R,3R)-1-[(1S,2S)-2-(2′,6′-difluoro[1,1′-biphenyl]-2-yl)-2-fluorocyclopropane-1-carbonyl]-3-(difluoromethyl)azetidin-2-yl]methyl}methanesulfonamide], for which the “OX2R agonist activity (3 μM, %)” value stood at 96%.

In the case of `CC(=O)[C@@H]1CN(C(=O)[C@@H]2C[C@@]2(F)c2ccccc2-c2c(F)cccc2F)[C@H]1CNS(C)(=O)=O` [Example 406, N-({(2R,3R)-3-acetyl-1-[(1S,2S)-2-(2′,6′-difluoro[1,1′-biphenyl]-2-yl)-2-fluorocyclopropane-1-carbonyl]azetidin-2-yl}methyl)methanesulfonamide], the “OX2R agonist activity (3 μM, %)” value came out at 50%.

As for `CS(=O)(=O)NC[C@@H]1CCN1C(=O)[C@@H]1C[C@H]1c1ccccc1-c1c(F)ccc(F)c1F` [Example 408, N-({(2S)-1-[(1R,2R)-2-(2′,3′,6′-trifluoro[1,1′-biphenyl]-2-yl)cyclopropane-1-carbonyl]azetidin-2-yl}methyl)methanesulfonamide], the “OX2R agonist activity (3 μM, %)” value is given as 73%.

Turning to `CS(=O)(=O)NCC1N(C(=O)[C@@H]2C[C@@]2(F)c2ccccc2-c2c(F)cccc2F)CC1(F)F` (stereo partly drawn) [Example 409, N-({(2R)-1-[(1S,2S)-2-(2′,6′-difluoro[1,1′-biphenyl]-2-yl)-2-fluorocyclopropane-1-carbonyl]-3,3-difluoroazetidin-2-yl}methyl)methanesulfonamide, or N-({(2S)-1-[(1S,2S)-2-(2′,6′-difluoro[1,1′-biphenyl]-2-yl)-2-fluorocyclopropane-1-carbonyl]-3,3-difluoroazetidin-2-yl}methyl)methanesulfonamide], the “OX2R agonist activity (3 μM, %)” value is on record as 100%.

Regarding `CCS(=O)(=O)NC[C@@H]1[C@H](F)CN1C(=O)[C@@H]1C[C@@]1(F)c1ccc(C)cc1-c1c(F)cccc1F` [Example 410, N-({(2R,3R)-1-[(1S,2S)-2-(2′,6′-difluoro-5-methyl[1,1′-biphenyl]-2-yl)-2-fluorocyclopropane-1-carbonyl]-3-fluoroazetidin-2-yl}methyl)ethanesulfonamide], the “OX2R agonist activity (3 μM, %)” value is 103%.

Consider `CS(=O)(=O)NC[C@@H]1[C@H](F)CN1C(=O)[C@@H]1C[C@@]1(F)c1ccc(F)cc1-c1c(F)cccc1F` [Example 413, N-({(2R,3R)-3-fluoro-1-[(1S,2S)-2-fluoro-2-(2′,5,6′-trifluoro[1,1′-biphenyl]-2-yl)cyclopropane-1-carbonyl]azetidin-2-yl}methyl)methanesulfonamide], for which the “OX2R agonist activity (3 μM, %)” value is on record as 109%.

As for `CCS(=O)(=O)NC[C@@H]1[C@@H](F)CN1C(=O)[C@@H]1C[C@@]1(F)c1ccccc1-c1c(F)cccc1F` [Example 414, N-({(2R,3S)-1-[(1S,2S)-2-(2′,6′-difluoro[1,1′-biphenyl]-2-yl)-2-fluorocyclopropane-1-carbonyl]-3-fluoroazetidin-2-yl}methyl)ethanesulfonamide], the “OX2R agonist activity (3 μM, %)” value turned out to be 101%.

As for `CC(NS(C)(=O)=O)[C@@H]1[C@H](F)CN1C(=O)[C@@H]1C[C@@]1(F)c1ccccc1-c1c(F)cccc1F` (stereo partly drawn) [Example 415, N-[(1R)-1-{(2R,3R)-1-[(1S,2S)-2-(2′,6′-difluoro[1,1′-biphenyl]-2-yl)-2-fluorocyclopropane-1-carbonyl]-3-fluoroazetidin-2-yl}ethyl]methanesulfonamide, or N-[(1S)-1-{(2R,3R)-1-[(1S,2S)-2-(2′,6′-difluoro[1,1′-biphenyl]-2-yl)-2-fluorocyclopropane-1-carbonyl]-3-fluoroazetidin-2-yl}ethyl]methanesulfonamide], the “OX2R agonist activity (3 μM, %)” value amounted to 96%.

In the case of `CCS(=O)(=O)NC(C)[C@@H]1[C@H](F)CN1C(=O)[C@@H]1C[C@@]1(F)c1ccccc1-c1c(F)cccc1F` (stereo partly drawn) [Example 416, N-[(1R)-1-{(2R,3R)-1-[(1S,2S)-2-(2′,6′-difluoro[1,1′-biphenyl]-2-yl)-2-fluorocyclopropane-1-carbonyl]-3-fluoroazetidin-2-yl}ethyl]ethanesulfonamide, or N-[(1S)-1-{(2R,3R)-1-[(1S,2S)-2-(2′,6′-difluoro[1,1′-biphenyl]-2-yl)-2-fluorocyclopropane-1-carbonyl]-3-fluoroazetidin-2-yl}ethyl]ethanesulfonamide], the “OX2R agonist activity (3 μM, %)” value is reported as 97%.

For the molecule `CCS(=O)(=O)NC[C@H]1[C@H](F)CN1C(=O)[C@@H]1C[C@@]1(F)c1ccccc1-c1c(F)cccc1F` [Example 417, N-({(2S,3R)-1-[(1S,2S)-2-(2′,6′-difluoro[1,1′-biphenyl]-2-yl)-2-fluorocyclopropane-1-carbonyl]-3-fluoroazetidin-2-yl}methyl)ethanesulfonamide], the “OX2R agonist activity (3 μM, %)” value is recorded as 98%.

Consider `CS(=O)(=O)NC([C@@H]1CCN1C(=O)[C@@H]1C[C@@]1(F)c1ccccc1-c1c(F)cccc1F)C1(O)CC1` (stereo partly drawn) [Example 418, N-[(R)-{(2S)-1-[(1S,2S)-2-(2′,6′-difluoro[1,1′-biphenyl]-2-yl)-2-fluorocyclopropane-1-carbonyl]azetidin-2-yl}(1-hydroxycyclopropyl)methyl]methane-sulfonamide, or N-[(S)-{(2S)-1-[(1S,2S)-2-(2′,6′-difluoro[1,1′-biphenyl]-2-yl)-2-fluorocyclopropane-1-carbonyl]azetidin-2-yl}(1-hydroxycyclopropyl)methyl]methanesulfonamide], for which the “OX2R agonist activity (3 μM, %)” value was found to be 99%.

Turning to `COC[C@H](NS(C)(=O)=O)C1CCN1C(=O)[C@@H]1C[C@@]1(F)c1ccccc1-c1c(F)cccc1F` (stereo partly drawn) [Example 419, N-[(1R)-1-{(2R)-1-[(1S,2S)-2-(2′,6′-difluoro[1,1′-biphenyl]-2-yl)-2-fluorocyclopropane-1-carbonyl]azetidin-2-yl}-2-methoxyethyl]methanesulfonamide, or N-[(1R)-1-{(2S)-1-[(1S,2S)-2-(2′,6′-difluoro[1,1′-biphenyl]-2-yl)-2-fluorocyclopropane-1-carbonyl]azetidin-2-yl}-2-methoxyethyl]methanesulfonamide], the “OX2R agonist activity (3 μM, %)” value was found to be 104%.

On to `CN(C)S(=O)(=O)NC[C@@H]1[C@H](F)CN1C(=O)[C@@H]1C[C@@]1(F)c1ccc(F)cc1-c1c(F)cccc1F` [Example 424, N′-({(2R,3R)-3-fluoro-1-[(1S,2S)-2-fluoro-2-(2′,5,6′-trifluoro[1,1′-biphenyl]-2-yl)cyclopropane-1-carbonyl]azetidin-2-yl}methyl)-N,N-dimethylsulfuric diamide], for which the “OX2R agonist activity (3 μM, %)” value was 98%.

`CC(C)NS(=O)(=O)NC[C@@H]1[C@H](F)CN1C(=O)[C@@H]1C[C@@]1(F)c1ccc(F)cc1-c1c(F)cccc1F` [Example 425, N-({(2R,3R)-3-fluoro-1-[(1S,2S)-2-fluoro-2-(2′,5,6′-trifluoro[1,1′-biphenyl]-2-yl)cyclopropane-1-carbonyl]azetidin-2-yl}methyl)-N′-propan-2-ylsulfuric diamide]: the “OX2R agonist activity (3 μM, %)” value stood at 72%.

For `CCS(=O)(=O)NC[C@H]1[C@@H](F)CN1C(=O)[C@@H]1C[C@@]1(F)c1ccccc1-c1c(F)cccc1F` [Example 426, N-({(2S,3S)-1-[(1S,2S)-2-(2′,6′-difluoro[1,1′-biphenyl]-2-yl)-2-fluorocyclopropane-1-carbonyl]-3-fluoroazetidin-2-yl}methyl)ethanesulfonamide], the “OX2R agonist activity (3 μM, %)” value came to 104%.
